The record followed here is publication PMC5594493, “Antiproliferative factor (APF) binds specifically to sites within the cytoskeleton-associated protein 4 (CKAP4) extracellular domain” (BMC Biochemistry, 2017).

Test [1] has as its system full-length CKAP4. Description: SPR binding to full-length His-tagged CKAP4. The method, then: FL-CKAP4 was expressed in HEK 293 T cells (ATCC) and similarly purified by IMAC. Briefly, HEK 293 T cells were transfected with pcDNA3.1/V5-His TOPO vector (Life Technologies) expressing FL-CKAP4 using X-tremeGENE 9 transfection reagent (Roche) according to manufacturer’s protocol. Cells were harvested after transient expression (24 h) and held at −80 °C before proceeding to purification. Cell lysate was prepared in PBS buffer containing 10 mM CHAPS, 20 mM imidazole and EDTA-free protease inhibitor cocktail and sonicated before proceeding to protein purification, as described above. All purified proteins were quantitated by the BCA method according to the manufacturer’s protocol using BSA as the standard (ThermoScientific). Because of the varied amino acid compositions of the purified recombinant proteins, the UV (λ280nm) absorbance method was also used for reference.
All SPR experiments were performed on a Biacore X-100 instrument (GE Healthcare) with the chip surface at 25 °C using PBS containing 0.01% Tween-20 as running buffer. CKAP4 recombinant proteins were immobilized individually either by Ni^2+/nitrilotriacetic acid (NTA) chelation on Sensor Chip NTA or by amine-coupling on Sensor Chip CM5, on the Fc2 channel. […] The data were analyzed using Biacore Evaluation software V2.0. […]

The test system of test [2] is CKAP4. Description: SPR binding to CKAP4 recombinant proteins (overall statements). Conditions: comparison of as-APF, APF and control peptide. The method, then: All SPR experiments were performed on a Biacore X-100 instrument (GE Healthcare) with the chip surface at 25 °C using PBS containing 0.01% Tween-20 as running buffer. CKAP4 recombinant proteins were immobilized individually either by Ni^2+/nitrilotriacetic acid (NTA) chelation on Sensor Chip NTA or by amine-coupling on Sensor Chip CM5, on the Fc2 channel. For amine-coupling, the sensor surface on both flow cells was activated for 7 min with a 1:1 mixture of 0.1 M EDC (1-ethyl-3-(3-dimethylaminopropyl) carbodiimide hydrochloride) and 0.1 M NHS (N-hydroxysuccinimide) at a flow rate of 5 μl/min. Immobilization of CKAP4 proteins (on Fc2) was performed in 10 mM sodium acetate buffer, at either pH 4.5, 5.0, or 5.5 based on preliminary pH scouting runs, for optimal binding. Unreacted NHS groups were quenched with a 7 min injection of 1 M ethanolamine pH 8.5. The Fc1 channel was treated similarly but without CKAP4 and served as a reference. Upon stabilization of the baseline signal, multi-cycle kinetics assays were performed with injections of as-APF as analyte at various concentrations (2.5–40 μM) in running buffer at 30 μl/min for 2 min, immediately followed by a 3 min dissociation phase. […] The data were analyzed using Biacore Evaluation software V2.0. […]
(In general: Surface plasmon resonance follows binding to a sensor surface in real time, without labels.)

The target of test [3] is T1, CKAP4_127–360 (Homo sapiens, UniProt Q07065).
T1 construct: amino acids 106–602, 127–360, 361–524, and 525–602 regions were generated by PCR and subcloned into the pET-15b bacterial expression vector; His-tag; made in house; host or cells: E. coli BL21(DE3)pLysS
T1 sequence (Q07065 127-360): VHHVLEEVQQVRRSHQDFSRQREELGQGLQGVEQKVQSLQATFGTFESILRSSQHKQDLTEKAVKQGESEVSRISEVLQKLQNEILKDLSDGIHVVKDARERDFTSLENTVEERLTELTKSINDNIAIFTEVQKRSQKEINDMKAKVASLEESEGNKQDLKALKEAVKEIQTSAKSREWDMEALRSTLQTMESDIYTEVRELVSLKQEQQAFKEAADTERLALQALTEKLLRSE
Description: SPR detection of as-APF in spiked urine, CKAP4_127–360 biosensor. The class given is binding. The note with it: immobilized CKAP4_127–360. The method, then:
For experiments using spiked urine, CKAP4_127–360 was immobilized on the Fc2 channel of a CM5 chip by amine-coupling, as the ligand. The Fc1 channel was similarly treated but without CKAP4, to serve as reference. A control urine sample from a healthy donor was mixed 1:1 with as-APF stock (200 μM) solution. Various dilutions of this mixture in SPR running buffer were prepared to yield desired as-APF final concentrations, and then injected over the sensor chip surface. Corresponding dilutions of unspiked control urine were run under identical conditions to account for background interference from urinary constituents. To ensure identical running conditions, all dilutions were adjusted to 1X SPR running buffer from a 10X stock. Sensorgrams were corrected for background interference from urinary constituents by subtracting the RU traces resulting from unspiked urine injections from the RU traces resulting from the corresponding urine dilutions with spiked as-APF, and subsequently replotted after subtracting the RU trace from the reference (Fc1) channel.
In order to determine whether this SPR-based assay employing CKAP4 as a biosensor could be used to detect APF in urine, we used urine from healthy donors spiked with as-APF as a mimetic for IC patient urine. CKAP4_127–360 was employed as the biosensing ligand, since it bound as-APF with the highest affinity. […]

For “Neu5Acα2 − 3Galβ1 − 3GalNAcα-O-TVPAAVVVA [APF]”, in test [1] (CKAP4FL immobilized via His-tag on NTA chip), the binding entry was “did not generate sufficient binding”. In addition, in test [1] (full-length His-tagged CKAP4 purified from mammalian cells), the binding activity result is reported as “did not detect appreciable binding activity”. The “binding to CKAP4 (in words)” value in test [2] is reported as “bound to CKAP4 with high specificity compared to control APF peptide”. The “detection in normal urine” value in test [3] is listed as “in a dose-dependent manner”.
